Values of other authors in US7175830B2, “Imaging of drug accumulation as a guide to antitumor therapy” (The United States of America as represented by the …, priority 1999, dated 2007).

Conditions: circulates in the body; higher than SN-38, the active form

SMILES: CCc1c2c(nc3ccc(OC(=O)N4CCC(N5CCCCC5)CC4)cc13)-c1cc3c(c(=O)n1C2)COC(=O)[C@]3(O)CC [Irinotecan]
- circulating concentration relative to that of its metabolite SN-38: about 100 fold
